Experimental data reported in patent publication US20020002171A1, “Materials and methods for killing nematodes and nematode eggs” (priority 2000, published 2002).

Test system: Caenorhabditis elegans
Experiment: C. elegans L1 nematicidal dose response in 96-well plates, 5 day visual score (Example 2; same procedure for Example 7, Table 3)
Assay type: in vivo
Set-up: key to 5 Day Visual Score V1 / 5 Day Visual Score V2 / 5 Day Visual Score V3 / 5 Day Visual Score V4 / 5 Day Visual Score V6 / 5 Day Visual Score V5 / Initial HTS Run Visual Score / Follow-up HTS Run Visual Score: Dead: only stiff L1s (no movement); Dead (L4): worms are dead, but at a later larval stage; majority of worms are L1 (based on size) worms move when plate is tapped; majority of worms are L2 (based on size); majority of worms are L3 (based on size); majority of worms are L4 (based on size); AD: majority of worms are adult; #AD: 5 adult worms or less; B!: sterile (0-25 progeny); B: low broodsize (25-100 progeny); ˜B: moderate broodsize (100-250 progeny); <: reduced broodsize (250-500 progeny); OK: no effect (˜1000+ progeny)
Procedure, shortened: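 L1 larvae, 20 per well in NGM with 1% E. coli HB101 and antibiotic/antimycotic, exposed to six 3-fold dilutions from 70 μM down to 0.3 μM (1.4% DMSO at top). Held at 20° C; viability scored visually under 100× dissecting microscope on day 5.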

[1] = dose response, dilution V1, day 5
[2] = dose response, dilution V2, day 5
[3] = dose response, dilution V3, day 5
[4] = dose response, dilution V4, day 5
[5] = dose response, dilution V5, day 5
[6] = dose response, dilution V6, day 5
[7] = 0.9 μM, C. elegans L1, scored day 5
[8] = 2.6 μM, C. elegans L1, scored day 5
[9] = 7.8 μM, C. elegans L1, scored day 5
[10] = 23.3 μM, C. elegans L1, scored day 5
[11] = 70 μM, C. elegans L1, scored day 5

FC(F)(F)c1ccc(CNc2nsc(N3CCN(c4ncccn4)CC3)n2)cc1 [compound 303]
Follow-up HTS Run % Run: 111%
Follow-up HTS Run mOD: 178 mOD
Initial HTS Run % Run: 96%
Initial HTS Run Visual Score: L3
Initial HTS Run mOD: 106 mOD
5 Day Visual Score V1 [1]: Dead
5 Day Visual Score V2 [2]: L1
5 Day Visual Score V3 [3]: Dead
5 Day Visual Score V4 [4]: OK (no effect (˜1000+ progeny))
5 Day Visual Score V5 [5]: < (reduced broodsize (250-500 progeny))

CCCCN(Cc1ccccc1)c1nc(NCc2ccc(C(F)(F)F)cc2)ns1 [compound 309]
Follow-up HTS Run % Run: 119%
Follow-up HTS Run mOD: 191 mOD
Initial HTS Run % Run: 106%
Initial HTS Run Visual Score: L4/AD/B!
Initial HTS Run mOD: 117 mOD
5 Day Visual Score V1 [1]: L1
5 Day Visual Score V2 [2]: B (low broodsize (25-100 progeny))
5 Day Visual Score V3 [3]: OK (no effect (˜1000+ progeny))
5 Day Visual Score V4 [4]: OK (no effect (˜1000+ progeny))
5 Day Visual Score V5 [5]: OK (no effect (˜1000+ progeny))
5 Day Visual Score V6 [6]: OK (no effect (˜1000+ progeny))

CCN(Cc1ccccc1)c1nc(NCc2c(F)cccc2F)ns1 [compound 299]
Follow-up HTS Run % Run: 115%
Follow-up HTS Run Visual Score: L4
Follow-up HTS Run mOD: 185 mOD
Initial HTS Run % Run: 105%
Initial HTS Run mOD: 116 mOD
5 Day Visual Score V1 [1]: L4#AD/B
5 Day Visual Score V2 [2]: ˜B (moderate broodsize (100-250 progeny))
5 Day Visual Score V3 [3]: ˜B (moderate broodsize (100-250 progeny))
5 Day Visual Score V4 [4]: OK (no effect (˜1000+ progeny))
5 Day Visual Score V5 [5]: OK (no effect (˜1000+ progeny))
5 Day Visual Score V6 [6]: OK (no effect (˜1000+ progeny))

CCCCCCCCCCCCCCCCCCN(C)c1nc(NCc2ccc(C(F)(F)F)cc2)ns1 [compound 306]
Follow-up HTS Run % Run: 102%
Follow-up HTS Run Visual Score: L1
Follow-up HTS Run mOD: 165 mOD
Initial HTS Run % Run: 107%
Initial HTS Run mOD: 118 mOD
5 Day Visual Score V1 [1]: L1
5 Day Visual Score V2 [2]: L1
5 Day Visual Score V4 [4]: OK (no effect (˜1000+ progeny))
5 Day Visual Score V5 [5]: OK (no effect (˜1000+ progeny))
5 Day Visual Score V6 [6]: OK (no effect (˜1000+ progeny))

CCCCCCCCCCCCCCCCCCN(C)c1nc(NCCc2ccc(Oc3ccccc3)cc2)ns1 [compound 270]
Follow-up HTS Run % Run: 113%
Follow-up HTS Run mOD: 182 mOD
Initial HTS Run % Run: 149%
Initial HTS Run mOD: 164 mOD
5 Day Visual Score V1 [1]: Dead
5 Day Visual Score V4 [4]: OK (no effect (˜1000+ progeny))
5 Day Visual Score V5 [5]: OK (no effect (˜1000+ progeny))
5 Day Visual Score V6 [6]: OK (no effect (˜1000+ progeny))

O=C(NCCCCCc1nc(-c2ccccc2)no1)Nc1ccc(OC(F)(F)F)cc1 [AKC 115]
5 Day Visual Score V5 [7]: Dead(L2/L
5 Day Visual Score V4 [8]: Dead(L2)
5 Day Visual Score V3 [9]: L2/Dead(L2)
5 Day Visual Score V2 [10]: Dead(L2/L3)
5 Day Visual Score V1 [11]: Dead

O=C(NCC1CCC(c2nc(-c3ccccc3)no2)CC1)Nc1ccc(OC(F)(F)F)cc1 (stereo not drawn) [AKC 113]
5 Day Visual Score V6 (0.3 μM, C. elegans L1, scored day 5): L4/#AD/B
5 Day Visual Score V4 [8]: Dead(L2/L
5 Day Visual Score V3 [9]: Dead
5 Day Visual Score V2 [10]: Dead
5 Day Visual Score V1 [11]: Dead

CCN(Cc1ccccc1)c1nc(NCc2ccc(C(F)(F)F)cc2)ns1 [compound 310]
Follow-up HTS Run % Run: 116%
Follow-up HTS Run mOD: 187 mOD
Initial HTS Run % Run: 102%
Initial HTS Run mOD: 112 mOD
5 Day Visual Score V1 (dose response, dilution V1, 5 day): Dead
5 Day Visual Score V2 (dose response, dilution V2, 5 day): B (low broodsize (25-100 progeny))
5 Day Visual Score V3 (dose response, dilution V3, 5 day): ˜B (moderate broodsize (100-250 progeny))
5 Day Visual Score V4 (dose response, dilution V4, 5 day): #AD/˜B
5 Day Visual Score V5 (dose response, dilution V5, 5 day): OK (no effect (˜1000+ progeny))
5 Day Visual Score V6 (dose response, dilution V6, 5 day): OK (no effect (˜1000+ progeny))

CCCCN(Cc1ccccc1)c1nc(NCc2c(F)cccc2F)ns1 [compound 298]
Follow-up HTS Run % Run: 143%
Follow-up HTS Run mOD: 231 mOD
Initial HTS Run % Run: 125%
Initial HTS Run Visual Score: L2
Initial HTS Run mOD: 137 mOD
5 Day Visual Score V1 [1]: L4#AD/B
5 Day Visual Score V2 [2]: ˜B (moderate broodsize (100-250 progeny))
5 Day Visual Score V3 [3]: OK (no effect (˜1000+ progeny))
5 Day Visual Score V4 [4]: OK (no effect (˜1000+ progeny))
5 Day Visual Score V5 [5]: OK (no effect (˜1000+ progeny))
5 Day Visual Score V6 [6]: OK (no effect (˜1000+ progeny))

CCOC(=O)CCN(Cc1ccccc1)c1nc(NCCc2ccc(F)cc2)ns1 [compound 242]
Follow-up HTS Run % Run: 87%
Follow-up HTS Run mOD: 140 mOD
Initial HTS Run % Run: 106%
Initial HTS Run Visual Score: Dead (L3?)
Initial HTS Run mOD: 117 mOD
5 Day Visual Score V2 [2]: B (low broodsize (25-100 progeny))
5 Day Visual Score V3 [3]: OK (no effect (˜1000+ progeny))
5 Day Visual Score V4 [4]: OK (no effect (˜1000+ progeny))
5 Day Visual Score V5 [5]: OK (no effect (˜1000+ progeny))
5 Day Visual Score V6 [6]: OK (no effect (˜1000+ progeny))

Fc1cccc(F)c1CNc1nsc(N2CCN(c3cccc(C(F)(F)F)c3)CC2)n1 [compound 246]
Follow-up HTS Run % Run: 130%
Follow-up HTS Run mOD: 209 mOD
Initial HTS Run % Run: 123%
Initial HTS Run Visual Score: L3
Initial HTS Run mOD: 135 mOD
5 Day Visual Score V1 [1]: Dead
5 Day Visual Score V3 [3]: OK (no effect (˜1000+ progeny))
5 Day Visual Score V4 [4]: OK (no effect (˜1000+ progeny))
5 Day Visual Score V5 [5]: OK (no effect (˜1000+ progeny))
5 Day Visual Score V6 [6]: OK (no effect (˜1000+ progeny))

Fc1ccc(CCNc2nsc(N3CCN(c4ccc(F)cc4)CC3)n2)cc1 [compound 240]
Follow-up HTS Run % Run: 86%
Follow-up HTS Run Visual Score: Dead
Follow-up HTS Run mOD: 138 mOD
Initial HTS Run % Run: 101%
Initial HTS Run mOD: 111 mOD
5 Day Visual Score V1 [1]: Dead
5 Day Visual Score V2 [2]: L1
5 Day Visual Score V4 [4]: ˜B (moderate broodsize (100-250 progeny))
5 Day Visual Score V5 [5]: < (reduced broodsize (250-500 progeny))
5 Day Visual Score V6 [6]: OK (no effect (˜1000+ progeny))

CCCCCCCCS(=O)(=O)N1CCN(C(=O)C=Cc2cccc(C(F)(F)F)c2)CC1C(=O)NCc1ccc(C(F)(F)F)cc1 (stereo not drawn) [AKC 171]
5 Day Visual Score V5 [7]: < (reduced broodsize (250-500 progeny))
5 Day Visual Score V3 [9]: Dead(L4)/#A
5 Day Visual Score V2 [10]: L2
5 Day Visual Score V1 [11]: Dead

CCCCCCCCCCNc1nsc(N(CCCC)Cc2ccccc2)n1 [compound 279]
Follow-up HTS Run % Run: 131%
Follow-up HTS Run Visual Score: Dead
Follow-up HTS Run mOD: 211 mOD
Initial HTS Run % Run: 144%
Initial HTS Run Visual Score: Dead
Initial HTS Run mOD: 158 mOD
5 Day Visual Score V1 [1]: Dead
5 Day Visual Score V2 [2]: Dead
5 Day Visual Score V4 [4]: OK (no effect (˜1000+ progeny))
5 Day Visual Score V5 [5]: OK (no effect (˜1000+ progeny))
5 Day Visual Score V6 [6]: OK (no effect (˜1000+ progeny))
